Values of other authors, collected in the CATMoS acute toxicity set (Mansouri et al. 2021).
Values joined by “and” are separate entries in the source; they are usually repeats but may differ in a detail not shown here. Equal values may be shown once.

test: rat acute oral toxicity; settings: in vivo

SMILES | LD50
COP(=S)(OC)SCn1nc(-c2ccccc2)ccc1=O | 18800 mg/kg
CCCN(CCC)C(=O)C(CCC(=O)N1CCN(CCOC(=O)Cc2c(C)n(C(=O)c3ccc(Cl)cc3)c3ccc(OC)cc23)CC1)NC(=O)c1ccccc1 (centres undefined) | 315 mg/kg
CCCCC(CC)COC(=O)CS (centres undefined) | 303 mg/kg
NCc1cccc(CN)c1 | 930 mg/kg
CC1(C)CC1CC1C(=O)N(c2ccccc2)N(c2ccccc2)C1=O (centres undefined) | 800 mg/kg
O=S(=O)(O)c1ccccc1C=Cc1ccc(-c2ccc(C=Cc3ccccc3S(=O)(=O)O)cc2)cc1 | 5580 mg/kg
CCOP(=S)(OCC)N1C(=O)c2ccccc2C1=O | 4930 mg/kg
CC(C)(C)c1ccc(C(=O)O)cc1 | 473 mg/kg
O=C(CF)Nc1ccc(-c2ccccc2)cc1 | 10 mg/kg
Oc1cccc(Oc2ccccc2)c1 | 1210 mg/kg
Cc1nn(C)c(=O)c2noc(C)c12 | 1000 mg/kg
CN(C)c1ccccc1CS(=O)c1nc2ccccc2[nH]1 (centres undefined) | 1300 mg/kg
CO[C@]12C[C@@H](COC(=O)c3cncc(Br)c3)CN(C)[C@@H]1Cc1cn(C)c3cccc2c13 | 1190 mg/kg
CCN(CC)CCOC(=O)Cc1ccc2c(c1)OCc1ccccc1C2=O | 150 mg/kg
CC(C(=O)Nc1cc(-c2ccccc2)nn1-c1ccccc1)N(C)C (centres undefined) | 815 mg/kg
Cc1c(Cl)cccc1Nc1ncccc1C(=O)O | 335 mg/kg
Nc1ccc(S(=O)(=O)Nc2ccc(NC(=O)CCC(=O)O)cc2)cc1 | 1500 mg/kg
Cc1ccc2c(c1)CC(=O)c1cc(C(C)C(=O)O)ccc1S2 (centres undefined) | 100 mg/kg
CC(=O)OCCCl | 10 mg/kg
CCCCOCCOCCCO | 5160 mg/kg
CNC(=O)c1c(I)c(C(=O)NCC(=O)Nc2c(I)c(C(=O)O)c(I)c(C(=O)NCCO)c2I)c(I)c(N(C)C(C)=O)c1I | 13300 mg/kg
CN=C1C=CC(=C(c2ccc(N(C)C)cc2)c2ccc(N(C)C)cc2)C=C1 | 413 mg/kg
COC(=O)COc1ccc2ccccc2c1 | 2800 mg/kg
Cc1c(Cl)cc2[nH]c(C(F)(F)F)nc2c1[N+](=O)[O-] | 31.4 mg/kg

SMILES | LD50
CCC(OC(C)=O)C(CC(C)NC)(c1ccccc1)c1ccccc1 (centres undefined) | 44 mg/kg
CC(C)(C)c1ccc2c(c1)C(C)(C)CC2 | 15500 mg/kg
CCOP(=O)(SC(C)CC)N1CCSC1=O (centres undefined) | 57 mg/kg
CCOP(=S)(Oc1cccc2cccnc12)c1ccccc1 (centres undefined) | 150 mg/kg
COc1cc(NC(=O)OCCCN2CCN(c3ccccc3)CC2)cc(OC)c1OC | 900 mg/kg
O=S1(=O)CCC(NC(=S)S)C1 (centres undefined) | 1700 mg/kg
C=CCc1ccc(OC(C)=O)c(OC)c1 | 1670 mg/kg
NCC1CC2CCC1C2 (centres undefined) | 1410 mg/kg
CCOP(=S)(OCC)OCCSCC | 7.5 mg/kg
CC(=O)Nc1ccc(S(=O)(=O)Nc2cc(C)on2)cc1 | 8400 mg/kg
CC[C@@H](C(=O)O)[C@@H]1O[C@@H]([C@@H](C)[C@H](O)[C@H](C)C(=O)[C@H](CC)[C@H]2O[C@]3(C=C[C@@H](O)[C@]4(CC[C@@](C)([C@H]5CC[C@](O)(CC)[C@H](C)O5)O4)O3)[C@H](C)C[C@@H]2C)[C@@H](C)C[C@@H]1C | 18.5 mg/kg
CC(C)c1nnc(NS(=O)(=O)c2ccc(N)cc2)s1 | 3940 mg/kg
CCc1cc2c(s1)-n1c(C)nnc1CN=C2c1ccccc1Cl | 3510 mg/kg
CCCCOCCCOC(=O)CCOc1cc(Cl)c(Cl)cc1Cl | 500 mg/kg
Cc1ccc2[nH]nnc2c1 | 1600 mg/kg
CNC(=O)Oc1ccccc1C1OCC(C)(C)O1 (centres undefined) | 110 mg/kg
CCOc1ccc(C(CN(C)C)C(C)CC)cc1Cl (centres undefined) | 451 mg/kg
O=[N+]([O-])c1cc(Cl)cc2[nH]c(C(F)(F)F)nc12 | 2.78 mg/kg
Cc1ccc2ccccc2c1 | 1630 mg/kg
CC(C)(C(=O)c1cccnc1)c1cccnc1 | 521 mg/kg
Cc1cc(C)c(C(=O)Cl)c(C)c1 | 2300 mg/kg
CCC1(CCC(C)C)C(=O)NC(=O)NC1=O | 250 mg/kg
NC(=O)CBr | 100 mg/kg
CCOP(=O)(OCC)OC(C)=CC(=O)OC(C)c1ccccc1 (centres undefined) | 65 mg/kg

SMILES | LD50
O=[N+]([O-])c1cc(Br)cc2[nH]c(C(F)(F)F)nc12 | 1.23 mg/kg
CC=CC(=O)N(CC)c1ccccc1C | 1500 mg/kg
[O-][N+](=Nc1ccccc1)c1ccccc1 | 620 mg/kg
NCCNCc1ccccc1O | 3700 mg/kg
C=CCC1=C(C)C(OC(=O)C2C(C)(C)C2(C)C)CC1=O (centres undefined) | 174 mg/kg
CCNC(=O)Cc1ccccc1 | 756 mg/kg
Brc1nc(Br)c(Br)[nH]1 | 34 mg/kg
CC(C)(O)C(=O)c1ccc(OCCO)cc1 | 4080 mg/kg
CC1C(C)(C)C2=C(C(=O)CCC2)C1(C)C (centres undefined) | 2900 mg/kg
CCOC(=O)C(C)Oc1ccc(Oc2nc3ccc(Cl)cc3s2)cc1 (centres undefined) | 907 mg/kg
CCCC(=O)Oc1ccc(OC)cc1 | 3400 mg/kg
O=C=NCC1CCC(CN=C=O)CC1 (centres undefined) | 1600 mg/kg
CC1CCCCN1CCCOC(=O)c1ccc(OC2CCCCC2)cc1 (centres undefined) | 2340 mg/kg
CCc1oc2ccccc2c1C(=O)c1cc(Br)c(O)c(Br)c1 | 248 mg/kg
CS(=O)(=O)c1ccc(Cl)cc1 | 400 mg/kg
Clc1ccccc1CN1CCc2sccc2C1 | 1780 mg/kg
Nc1ccc2c(S(=O)(=O)O)cccc2c1S(=O)(=O)O | 5430 mg/kg
COc1cc2c(cc1OC)[C@@H]1C(=O)c3ccc4c(c3O[C@@H]1CO2)C[C@H](C(C)C)O4 | 2500 mg/kg
COc1c2ccoc2cc2oc(CO[C@@H]3O[C@H](CO)[C@@H](O)[C@H](O)[C@H]3O)cc(=O)c12 | 1470 mg/kg
C[N+]1(CC2COC(c3ccccc3)(c3ccccc3)O2)CCCCC1 (centres undefined) | 1820 mg/kg
CC=CC=CC(=O)NO | 2460 mg/kg
OCCN1CCN(CCCN2c3ccccc3Sc3ccc(Cl)cc32)CC1 | 318 mg/kg and 210 mg/kg
CCN1CCCC(Nc2cc(C)nc(N=C(N)Nc3ccc(Cl)c(Cl)c3)n2)C1 (centres undefined) | 1040 mg/kg
CC(C)C1C=C2CC[C@H]3[C@](C)(CO)CCC[C@]3(C)[C@H]2CC1 (some centres undefined) | 70000 mg/kg

SMILES | LD50
Brc1ccccc1 | 2380 mg/kg
CCSC(=S)N(CC)CC | 712 mg/kg
Nc1ccc(O)c(Cc2cc(N)ccc2O)c1 | 25 mg/kg
Cc1occc(=O)c1O | 1410 mg/kg
CCN(COC(C)=O)N=O | 810 mg/kg
CNC(=O)c1cc(Cl)ccn1 | 500 mg/kg
CCCCCC(=O)c1ccc(N)cc1 | 216 mg/kg
Cc1ccccc1C(C)c1ccccc1 (centres undefined) | 1750 mg/kg
Nc1ncnc2c1ncn2[C@]1(CO)O[C@H](CO)[C@@H](O)[C@H]1O | 10000 mg/kg
CNC(=O)Oc1ccccc1C1SCCS1 | 90 mg/kg
O=S(=O)(c1ccccc1)c1ccccc1 | 300 mg/kg
Cc1c(CC(=O)O)c2ccccc2n1C(=O)c1ccccc1 | 362 mg/kg
O=C1C=CC(=NCl)C=C1 | 100 mg/kg
C=C(C)OC(C)=O | 3000 mg/kg
C=COC(=O)c1ccccc1 | 3250 mg/kg
CC(C)=CCN(CC=C(C)C)CCC(C(N)=O)c1cccc2ccccc12 (centres undefined) | 353 mg/kg
CCCCCCCCCCCCc1ccc(C)c(C[N+](C)(C)C)c1 | 389 mg/kg
NC(Cl)c1nc(Cl)c(Cl)c(Cl)c1Cl (centres undefined) | 1190 mg/kg
CN1CCC2(C)CC(Cc3ccc(O)cc32)C1 (centres undefined) | 320 mg/kg
CC[N+](C)(C)CCO | 6930 mg/kg
Cc1nc([N+](=O)[O-])cn1-c1ccc([N+](=O)[O-])cc1 | 4810 mg/kg
CNC(=O)Oc1cc(C)ccc1C(C)C | 500 mg/kg
CCOC(=O)Nc1cccc2c1CN(C)CC2c1ccc(Cl)cc1 (centres undefined) | 665 mg/kg
CC1=CC(=O)c2c(O)cccc2C1=O | 65 mg/kg

SMILES | LD50
COc1cccc(O)c1 | 597 mg/kg
COP(N)(=S)SC (centres undefined) | 250 mg/kg
COC(=O)c1cc(C(=O)OC)cc([N+](=O)[O-])c1 | 10000 mg/kg
COP(=S)(OC)OC1CCCCC1 | 2900 mg/kg
CC1CSC(c2ccccc2OC(=O)N(C)C)S1 (centres undefined) | 140 mg/kg
O=C(O)c1c(Cl)c(Cl)c(Cl)c(Cl)c1C(O)=Nc1cccc(Cl)c1Cl | 2340 mg/kg
C#CCc1ccc(COC(=O)C2C(C=C(C)C)C2(C)C)o1 (centres undefined) | 10000 mg/kg
CCc1ccc(C)[n+](C(C)CCC(C)(C)CC(C)(C)C)c1 (centres undefined) | 540 mg/kg
COP(=S)(OC)SCC(=O)N(c1ccc(Cl)cc1)C(C)C | 472 mg/kg
CCCc1ccc(C)cc1O | 730 mg/kg
Cn1c(=O)c2c(ncn2CC2SCCS2)n(C)c1=O | 1840 mg/kg
CCOP(=S)(OCC)SC=C(C)SC | 2.5 mg/kg
CCN1CCCC1CNC(=O)c1cc(Cl)cc(Cl)c1OCc1ccccc1 (centres undefined) | 576 mg/kg
O=C(O)CCC(=O)c1ccc(C2CCCCC2)c(Cl)c1 | 120 mg/kg and 300 mg/kg
S=c1[nH]cnc2[nH]cnc12 | 277 mg/kg
Nc1ccc2[nH]c3ccccc3c2c1 | 1520 mg/kg
CC1(COCCOCC2(C)CO2)CO1 (centres undefined) | 7460 mg/kg
COC(=S)SSC(=S)OC | 240 mg/kg
c1nc(NC2CC2)c2ncn(CC3CC3)c2n1 | 160 mg/kg
CNS(=O)(=O)c1cc(Cl)c(Cl)cc1Cl | 5100 mg/kg
CC(Cl)CCC(C)Cl (centres undefined) | 4000 mg/kg
CC(=O)Nc1c(I)c(C(=O)O)c(I)c(N(C)C(C)=O)c1I | 38100 mg/kg
O=COCCCc1ccccc1 | 4090 mg/kg
CNC(=O)Oc1ccccc1C1OCC=CCO1 | 35 mg/kg

SMILES | LD50
CNC(=O)Oc1ccccc1C1OCCS1 (centres undefined) | 56 mg/kg
CCCCOC(=O)N(C)SN(C)C(=O)Oc1cccc2c1OC(C)(C)C2 | 53 mg/kg
CC(C)=NNC(N)=S | 48.5 mg/kg
O=C(O)Cc1ccccc1Oc1ccc(Cl)cc1Cl | 2280 mg/kg
CCOC(=O)C(SP(=O)(OC)OC)c1ccccc1 (centres undefined) | 63 mg/kg
CN(SC(Cl)(Cl)Cl)C(=O)Oc1cccc2c1OC(C)(C)C2 | 125 mg/kg
OC1(c2ccc(Cl)c(Cl)c2)c2ccccc2C2=NCCN21 (centres undefined) | 353 mg/kg
CC1(C)[C@H]2CC[C@](C)(O)[C@@H]1C2 | 2050 mg/kg
N#Cc1cc(Cl)cc2[nH]c(C(F)(F)F)nc12 | 4.79 mg/kg
Cl/C=C/C[N+]12CN3CN(CN(C3)C1)C2 | 500 mg/kg
CC(CCO)CCO | 7780 mg/kg
O=C(O)CCCCCCCCCl | 3000 mg/kg
CCOCN(C(=O)CO)c1c(C)cccc1CC | 2400 mg/kg
C#CCN(C)Cc1ccccc1 | 250 mg/kg and 300 mg/kg
CC(C)C1NC(=O)c2ccccc2O1 (centres undefined) | 1850 mg/kg
COC(=O)C1=C(C)NC(C)=C(C(=O)OC)C1c1ccccc1[N+](=O)[O-] | 1020 mg/kg
NC(=O)COc1ccc(Cl)cc1Cl | 1200 mg/kg
O=C(Cc1ccccc1)OCCc1ccccc1 | 15000 mg/kg
CCCC(CCC)C(N)=O | 890 mg/kg
CCOP(=S)(CCl)Oc1ccc(C#N)cc1OC (centres undefined) | 71 mg/kg
Clc1ccc(N2N=N[C@@H]3[C@@H]4C[C@@H]([C@H]5N=N[C@@H]45)[C@@H]32)cc1 | 261 mg/kg
CC(C)NCC(O)COc1ccc(CCOCC2CC2)cc1 (centres undefined) | 998 mg/kg
CNC=O | 4000 mg/kg
c1ccc2[nH]ccc2c1 | 1000 mg/kg
